In US7138361B2, “Herbicidal heterocycles” (E. I. du Pont de Nemours and Company, priority 2000, dated 2006):

Legend:
Type in all cases: in vivo
[1] = system: Surinam grass (Brachiaria decumbens); experiment: Test C preemergence; details: for Plant response rating (0 to 100), Surinam grass: visual evaluation after 12 to 14 days
Outline: (§1)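 Plants held in greenhouse for 12–14 days post-application are scored by eye against controls on a 0–100 control scale. Application timing: preemergence on sown seed, or postemergence on 2–18 cm plants.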

[2] = system: Sunflower; experiment: Test C preemergence
[3] = system: common ragweed (Ambrosia elatior); experiment: Test C preemergence; details: preemergence
Outline: as §1

[4] = system: Sunflower; experiment: Test C preemergence; details: Rate 62 g/ha, scale 0 to 100
[5] = system: Sunflower; experiment: Test C preemergence; details: scale 0 to 100, 0 no effect, 100 complete control
[6] = system: smallflower flatsedge (Cyperus difformis); experiment: Test C flooded paddy test; details: for Flatsedge plant response rating: Flooded Paddy, scale 0 to 100, 0 no effect, 100 complete control; for Plant response rating, Flatsedge: scale 0 to 100 (0 no effect, 100 complete control)
Outline: (§2)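 Ratings come from visual comparison with control plants after 12 to 14 days in the greenhouse. Each species was at the 2-leaf stage when the flooded paddy was treated. Scores run from 0, meaning no effect, to 100, meaning complete control.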

[7] = system: barnyardgrass (Echinochloa crus-galli); experiment: Test C flooded paddy test; details: for Barnyardgrass plant response rating: Flooded Paddy, scale 0 to 100, 0 no effect, 100 complete control; for Plant response rating, Barnyardgrass: scale 0 to 100 (0 no effect, 100 complete control)
Outline: as §2

[8] = system: duck salad (Heteranthera limosa); experiment: Test C flooded paddy test; details: for Ducksalad plant response rating: Flooded Paddy, scale 0 to 100, 0 no effect, 100 complete control; for Plant response rating, Ducksalad: scale 0 to 100 (0 no effect, 100 complete control)
Outline: as §2

[9] = system: rice (Oryza saliva); experiment: Test C flooded paddy test; details: for Rice plant response rating: Flooded Paddy, scale 0 to 100, 0 no effect, 100 complete control; for Plant response rating, Rice: scale 0 to 100 (0 no effect, 100 complete control)
Outline: as §2

[10] = system: Surinam grass (Brachiaria decumbens); experiment: Test B postemergence
Outline: (§3)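 Visual injury scores, 0 = no effect to 100 = complete control, assigned against controls after 13 to 15 days in the greenhouse. Compounds formulated in non-phytotoxic solvent plus surfactant and applied to soil after planting (pre) or onto foliage of 1- to 4-leaf plants (post).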

[11] = system: crabgrass (Digitaria sanguinalis); experiment: Test B postemergence
Outline: as §3

[12] = system: cocklebur (Xanthium strumarium); experiment: Test B postemergence
Outline: as §3

[13] = system: velvetleaf (Abutilon theophrasti); experiment: Test B postemergence
Outline: as §3

[14] = system: wheat (Triticum aestivum); experiment: Test B postemergence
Outline: as §3

[15] = system: barnyardgrass (Echinochloa crus-galli); experiment: Test B postemergence
Outline: as §3

[16] = system: pigweed (Amaranthus retroflexus); experiment: Test B postemergence
Outline: as §3

[17] = system: lambsquarters (Chenopodium album); experiment: Test B postemergence
Outline: as §3

[18] = system: corn (Zea mays); experiment: Test B postemergence
Outline: as §3

[19] = system: wild oat (Avena fatua); experiment: Test B postemergence
Outline: as §3

[20] = system: blackgrass (Alopecurus myosuroides); experiment: Test B postemergence
Outline: as §3

[21] = system: giant foxtail (Setaria faberii); experiment: Test B postemergence
Outline: as §3

[22] = system: morning glory (Ipomoea hederacea); experiment: Test B postemergence
Outline: as §3

[23] = Rate 125 g/ha, scale 0 to 100, 0 no effect, 100 complete control
[24] = flooded paddy test, Rate 125 g/ha
[25] = flooded paddy test, Rate 250 g/ha
[26] = flooded paddy test, Rate 62 g/ha, visually evaluated after 12 to 14 days, 0 = no effect, 100 = complete control
[27] = Rate 500 g/ha, scale 0 (no effect) to 100 (complete control), 13 to 15 days
[28] = Rate 62 g/ha, scale 0 to 100, 0 no effect, 100 complete control
[29] = flooded paddy test, Rate 62 g/ha
[30] = Rate 500 g/ha, scale 0 to 100, 0 is no effect, 100 is complete control, 13 to 15 days
[31] = Rate 125 g/ha, scale 0 (no effect) to 100 (complete control), 13 to 15 days

Structure (SMILES): COc1cc(N2CCC(n3ccc(C(C)C)n3)C2=O)ccc1Br (stereo not shown) [Compound 140]
- Plant response rating, Surinam grass [1, 23]: 0
- Plant response rating, Surinam grass ([1]; preemergence, Rate 62 g/ha, scale 0 to 100): 0
- Plant response rating (0 to 100), Surinam grass ([1]; preemergence, Rate 500 g/ha): 100
- Plant response rating, Surinam grass ([1]; preemergence, Rate 250 g/ha, scale 0 to 100, 0 no effect, 100 complete control): 90
- Plant response rating, Sunflower [2, 23]: 50
- Plant response rating, Ragweed, Common ([3]; Rate 62 g/ha, scale 0 to 100): 100
- Plant response rating (0 to 100), Ragweed, Common ([3]; Rate 500 g/ha, visual evaluation after 12 to 14 days): 100
- Plant response rating, Ragweed, Common ([3]; Rate 250 g/ha, scale 0 to 100, 0 no effect, 100 complete control): 100
- Plant response rating, Sunflower [4]: 30
- Plant response rating, Sunflower ([5]; Rate 250 g/ha): 60
- Flatsedge plant response rating ([6]; Rate 500 g/ha): 95
- Plant response rating, Flatsedge [6, 24]: 90
- Plant response rating, Flatsedge [6, 25]: 95
- Plant response rating (scale 0 to 100), Flatsedge [6, 26]: 90
- Barnyardgrass plant response rating ([7]; Rate 500 g/ha): 100
- Plant response rating, Barnyardgrass [7, 24]: 100
- Plant response rating, Barnyardgrass [7, 25]: 100
- Plant response rating (scale 0 to 100), Barnyardgrass [7, 26]: 50
- Ducksalad plant response rating ([8]; Rate 500 g/ha): 95
- Plant response rating, Ducksalad [8, 24]: 75
- Plant response rating, Ducksalad [8, 25]: 95
- Plant response rating (scale 0 to 100), Ducksalad [8, 26]: 20
- Rice plant response rating ([9]; Rate 500 g/ha): 50
- Plant response rating, Rice [9, 24]: 30
- Plant response rating, Rice [9, 25]: 35
- Plant response rating (scale 0 to 100), Rice [9, 26]: 0
- Plant response rating, Surinam grass [10, 23]: 0
- Plant response rating, Surinam grass [10, 27]: 0
- Plant response rating, Crabgrass [11, 23]: 20
- Plant response rating, Crabgrass [11, 27]: 80
- Plant response rating, Cocklebur [12, 23]: 60
- Plant response rating, Cocklebur [12, 27]: 90
- Plant response rating, Velvetleaf [13, 23]: 0
- Plant response rating, Velvetleaf [13, 27]: 60
- Plant response rating, Wheat [14, 23]: 0
- Plant response rating, Wheat [14, 27]: 0
- Plant response rating, Barnyardgrass [15, 23]: 0
- Plant response rating, Barnyardgrass [15, 27]: 80
- Plant response rating, Pigweed [16, 23]: 60
- Plant response rating, Pigweed [16, 27]: 90
- Plant response rating, Lambsquarters [17, 23]: 70
- Plant response rating, Lambsquarters [17, 27]: 100
- Plant response rating, Corn [18, 23]: 0
- Plant response rating, Corn [18, 27]: 0
- Plant response rating, Wild Oat [19, 23]: 0
- Plant response rating, Wild Oat [19, 27]: 0
- Plant response rating, Blackgrass [20, 23]: 0
- Plant response rating, Blackgrass [20, 27]: 0
- Plant response rating, Foxtail, Giant [21, 23]: 0
- Plant response rating, Foxtail, Giant [21, 27]: 70
- Plant response rating, Morningglory [22, 23]: 0
- Plant response rating, Morningglory [22, 27]: 100

Structure (SMILES): CC(C)(C)c1ccn(C2CCN(c3cccc(C(F)(F)F)c3)C2=S)n1 (stereo not shown) [Compound 22]
- Plant response rating, Surinam grass ([1]; Preemergence, Rate 500 g/ha, scale 0 to 100): 90
- Plant response rating, Surinam grass [1, 28]: 0
- Plant response rating (0 to 100), Surinam grass ([1]; preemergence, Rate 250 g/ha): 60
- Plant response rating, Surinam grass ([1]; preemergence, Rate 125 g/ha, scale 0 to 100, 0 no effect, 100 complete control): 40
- Plant response rating, Sunflower [2, 28]: 0
- Plant response rating, Sunflower ([2]; Rate 500 g/ha, scale 0 to 100): 0
- Plant response rating, Sunflower ([5]; Rate 125 g/ha): 0
- Flatsedge plant response rating ([6]; Rate 250 g/ha): 100
- Flatsedge plant response rating ([6]; Rate 500 g/ha): 100
- Plant response rating, Flatsedge [6, 29]: 100
- Plant response rating, Flatsedge [6, 24]: 100
- Barnyardgrass plant response rating ([7]; Rate 250 g/ha): 100
- Barnyardgrass plant response rating ([7]; Rate 500 g/ha): 100
- Plant response rating, Barnyardgrass [7, 29]: 40
- Plant response rating, Barnyardgrass [7, 24]: 80
- Ducksalad plant response rating ([8]; Rate 250 g/ha): 80
- Ducksalad plant response rating ([8]; Rate 500 g/ha): 100
- Plant response rating, Ducksalad [8, 29]: 50
- Plant response rating, Ducksalad [8, 24]: 80
- Rice plant response rating ([9]; Rate 250 g/ha): 20
- Rice plant response rating ([9]; Rate 500 g/ha): 40
- Plant response rating, Rice [9, 29]: 20
- Plant response rating, Rice [9, 24]: 20
- Plant response rating, Surinam grass [10, 30]: 20
- Plant response rating, Crabgrass [11, 31]: 40
- Plant response rating, Crabgrass [11, 30]: 40
- Plant response rating, Cocklebur [12, 31]: 20
- Plant response rating, Cocklebur [12, 30]: 20
- Plant response rating, Velvetleaf [13, 31]: 20
- Plant response rating, Velvetleaf [13, 30]: 30
- Plant response rating, Wheat [14, 31]: 0
- Plant response rating, Wheat [14, 30]: 0
- Plant response rating, Barnyardgrass [15, 31]: 0
- Plant response rating, Barnyardgrass [15, 30]: 80
- Plant response rating, Pigweed [16, 31]: 80
- Plant response rating, Pigweed [16, 30]: 90
- Plant response rating, Lambsquarters [17, 31]: 90
- Plant response rating, Lambsquarters [17, 30]: 90
- Plant response rating, Corn [18, 31]: 0
- Plant response rating, Corn [18, 30]: 0
- Plant response rating, Wild Oat [19, 31]: 0
- Plant response rating, Wild Oat [19, 30]: 0
- Plant response rating, Blackgrass [20, 31]: 0
- Plant response rating, Blackgrass [20, 30]: 0
- Plant response rating, Foxtail, Giant [21, 31]: 0
- Plant response rating, Foxtail, Giant [21, 30]: 0
- Plant response rating, Morningglory [22, 31]: 30
- Plant response rating, Morningglory [22, 30]: 30
